Reference: paper PMC2999579 (Molecular imaging and biology : MIB : the official …, 2009)

Biological target: integrin αvβ3 (Homo sapiens, UniProt P05106+P06756)
Assay: Competitive cell-binding assay with ^125I-echistatin on U87MG cells
Conditions: SD

In the case of `CC(F)C(=O)NC[C@@H]1O[C@H](C(=O)NCCCC[C@@H]2NC(=O)[C@@H](Cc3ccccc3)NC(=O)[C@H](CC(=O)O)NC(=O)CNC(=O)[C@H](CCCNC(=N)N)NC2=O)[C@H](O)[C@H](O)[C@H]1O` (stereo partly shown) [galacto-RGD, FP-SAA-c(RGDfK)], the IC50 is reported as 404 ± 38 nM.
